From patent US10508140B2, “Peptide having hair growth-promoting activity and/or melanin generation-promoting activity, and use thereof” (CAREGEN CO., LTD., priority 2016, dated 2019)
No end group written: not given here.

Legend:
Type in all cases: cell-based
[1] = test system: ERK; experiment: p-ERK western blotting; settings: human hair follicle dermal papilla cells, 15 and 30 minutes
Experimental: (§1) Human hair follicle dermal papilla cells were seeded at a density of 4×10^5 cells/well on 6-well plate, followed by incubation overnight. After changing into serum-free medium, the cells were treated with the peptides, followed by incubation for 15 and 30 minutes, and then the wells were harvested to prepare cell lysate. Western blotting was performed using PI3K antibodies (Santa Cruz Biotechnology, USA) and phospho-ERK antibody (Cell Signaling Technology, USA) to compare protein expression patterns.

[2] = test system: keratin-14; experiment: Keratin-14 RT-PCR; settings: human hair follicle dermal papilla cells, 24 hours
Experimental: (§2) Human hair follicle dermal papilla cells were seeded at a density of 5×10^5 cells/well on 6-well plates, followed by incubation overnight. After changing into serum-free medium, the cells were treated with the peptides, followed by incubation for 24 hours, and then the wells were harvested to isolate RNA. After RNA quantification, cDNA synthesis was conducted using the cDNA synthesis kit (Intron, Korea), followed by PCR using PCR premix (Intron, Korea) and Ha3-II and keratin-14 primers, and then electrophoresis was performed on 5% agarose gel to compare the mRNA expression levels of the growth factors in respective sample treatment conditions.

[3] = test system: Bcl-2; experiment: Bcl-2 western blotting; settings: human hair follicle dermal papilla cells, 24 hours
Experimental: (§3) Human hair follicle dermal papilla cells were seeded at a density of 4×10^5 cells/well on 6-well plate, followed by incubation overnight. After changing into serum-free medium, the cells were treated with the peptides, followed by incubation for 24 hours, and then the wells were harvested to prepare cell lysate. Western blotting was performed using Bcl-2 and Bax antibodies (Santa Cruz Biotechnology, USA) to compare protein expression patterns.

[4] = test system: tyrosinase; experiment: Melanogenesis-related gene RT-PCR: tyrosinase; settings: B16F10 cell line, 72 hours
Experimental: (§4) Melanocytes (B16F10 cell line) were incubated on 6-well culture plates in an incubator for 24 hours, and were treated with the peptides of the present invention with different concentrations. After RNA was extracted from the cells incubated for 72 hours, cDNA was prepared. PCR was performed by using respective primers specific to MITF and tyrosinase, which are factors involved in melanogenesis, and the expression changes of the respective genes were observed.

[5] = test system: β-catenin; experiment: β-Catenin activity test (western blotting, nuclear and cytoplasmic proteins); settings: human hair follicle dermal papilla cells, 15 and 30 minutes
Experimental: Human hair follicle dermal papilla cells were seeded at a density of 4×10^5 cells/well on 6-well plates, followed by incubation overnight. After changing into serum-free medium, the cells were treated with the peptides, followed by incubation for 15 and 30 minutes, and then the wells were harvested to isolate nuclear and cytoplasmic proteins. Western blotting was performed using β-catenin (Santa Cruz Biotechnology, USA) to compare β-catenin expression patterns.

[6] = test system: DKK-1; experiment: DKK-1 RT-PCR; settings: human hair follicle dermal papilla cells, DKK-1 increased by DHT, 24 hours
Experimental: as §2, with “DKK-1” for “Ha3-II and keratin-14”

[7] = test system: TGF-β1; experiment: TGF-β1 RT-PCR; settings: human hair follicle dermal papilla cells, 24 hours
Experimental: as §2, with “4×10^5” for “5×10^5”, “plate,” for “plates,”, “TGF-β1” for “Ha3-II and keratin-14”

[8] = test system: KGF; experiment: KGF RT-PCR; settings: human hair follicle dermal papilla cells, 24 hours
Experimental: as §2, with “4×10^5” for “5×10^5”, “plate,” for “plates,”, “respective KGF” for “Ha3-II”, “VEGF” for “keratin-14”, “in” for “in respective”

[9] = test system: PI3K; experiment: PI3K western blotting; settings: human hair follicle dermal papilla cells, 15 and 30 minutes
Experimental: as §1

[10] = test system: DKK-1; experiment: DKK-1 western blotting; settings: human hair follicle dermal papilla cells, DKK-1 increased by DHT, 24 hours
Experimental: Human hair follicle dermal papilla cells were seeded at a density of 4×10^5 cells/well on 6-well plate, followed by incubation overnight. After changing into serum-free medium, the cells were treated with the peptides, followed by incubation for 24 hours, and then the wells were harvested to prepare cell lysate. Western blotting was performed using DKK-1 antibodies (Santa Cruz Biotechnology, USA) to compare protein expression patterns.

[11] = test system: Bax; experiment: Bax western blotting; settings: human hair follicle dermal papilla cells, 24 hours
Experimental: as §3

[12] = test system: Human hair follicle dermal papilla cells; experiment: DPC proliferation assay (MTT); settings: serum-free medium, incubation for 3 days, absorbance 550 nm
Experimental: Human hair follicle dermal papilla cells were seeded at a density of 2×10^3 cells/well on 96-well plates, followed by incubation overnight. After changing into serum-free medium, the cells were treated with the peptides, followed by incubation for 3 days, and then the wells were treated with 4 mg/ml MTT solution, followed by reaction for 4 hours. The resulting formazan was solubilized with DNSO, and then the absorbance was measured at 550 nm using a microplate reader.

[13] = test system: MITF; experiment: Melanogenesis-related protein western blotting: MITF; settings: B16F10 cell line, 72 hours
Experimental: (§5) Melanocytes (B16F10 cell line) were incubated on 6-well culture plates for 24 hours, and were treated with the peptides of the present invention with different concentrations. After 72-hour incubation, the cells were lysed, and the cells were subjected to western blotting using specific antibodies (two types, both from Santa Cruz Biotechnology, USA) to investigate the expression of MITF and tyrosinase, which are factors involved in melanogenesis.

[14] = test system: melanocytes (B16F10 cell line); experiment: Melanin measurement assay; settings: 72 hours, absorbance 490 nm
Experimental: After melanocytes (B16F10 cell line) in 6-well plates were cultured in an incubator at 37° C. for 24 hours, the medium of each plate was removed and exchanged with a fresh medium, followed by treatment with the present peptide with different concentrations. After the incubation for 72 hours, the culture medium was removed, and the cells were taken off and then transferred into 1.5-ml tubes, followed by centrifugation at 13,000 rpm for 3 minutes. The supernatant was removed, and cell pellets were collected to observe melanin. Then, 150 μl of 2 M NaOH was added to the cell pellets to lyse intracellular melanin at 60° C. for 30 minutes. Then, 100 μl of the supernatant obtained from the lysis was added into each well of 96-well plates, and the absorbance was measured at 490 nm.

[15] = test system: CREB; experiment: Melanogenesis-related protein activity assay: CREB phosphorylation (western blotting); settings: B16F10 cell line, 72 hours
Experimental: Melanocytes (B16F10 cell line) were incubated on 6-well culture plates in an incubator for 24 hours, and were treated with the peptide of the present invention with different concentrations. After 72-hour incubation, the cells were lysed, and the cells were subjected to western blotting using specific antibodies (Cell Signaling Technology, USA) to investigate the phosphorylation level of CREB, which is a signaling substance involved in melanogenesis.

[16] = test system: tyrosinase; experiment: Tyrosinase activity assay; settings: B16F10 cells, 72 hours, L-dopa, absorbance 475 nm
Experimental: Melanoma cell line (B16F10) cells were cultured in 6-well culture plates for 24 hours, and treated with a peptide with difference concentrations, followed by culture for 72 hours. The 6-well culture plates were loaded on ice and washed with cool PBS, and then 300 μl of 0.1 M sodium phosphate buffer (pH 6.8 lysis buffer) containing 1% Triton X-100 was added. The cells were collected in 1.5-mL tubes, and then cell membranes were disrupted by repeating five times rapid-freezing at […] and thawing. After centrifugation at 13,000 rpm for 20 minutes, the supernatant was collected in other 1.5-mL tubes, and the protein of the samples was quantified. The samples were diluted to have the same protein concentration and then dispensed in each three wells in a 96-well culture plate, and then 20 μl of 10 mM L-dopa was added, followed by incubation at 37° C. for 1 hour.

[17] = test system: MITF; experiment: Melanogenesis-related gene RT-PCR: MITF; settings: B16F10 cell line, 72 hours
Experimental: as §4

[18] = test system: tyrosinase; experiment: Melanogenesis-related protein western blotting: tyrosinase; settings: B16F10 cell line, 72 hours
Experimental: as §5

[19] = test system: MSX2; experiment: MSX2 RT-PCR; settings: human hair follicle dermal papilla cells, 24 hours
Experimental: as §2, with “4×10^5” for “5×10^5”, “plate,” for “plates,”, “MSX2” for “Ha3-II and keratin-14”, “level” for “levels”, “factor” for “factors”, “in” for “in respective”

[20] = test system: TRP1; experiment: Melanogenesis-related gene RT-PCR: TRP1; settings: B16F10 cell line, 72 hours, FIG. 13b
[21] = test system: VEGF; experiment: VEGF RT-PCR; settings: human hair follicle dermal papilla cells, 24 hours
Experimental: as §2, with “4×10^5” for “5×10^5”, “plate,” for “plates,”, “respective KGF” for “Ha3-II”, “VEGF” for “keratin-14”, “in” for “in respective”

[22] = test system: Ha3-II; experiment: Ha3-II RT-PCR; settings: human hair follicle dermal papilla cells, 24 hours
Experimental: as §2

| Sequence | phosphorylation level of ERK [1] | mRNA expression of keratin-14 [2] | expression of the anti-apoptotic protein Bcl-2 [3] | mRNA expression of tyrosinase enzyme [4] | activity of β-catenin [5] | mRNA expression of DKK-1 [6] | expression of TGF-β1 (mRNA) [7] | protein expression of DKK-1 [10] | expression of the apoptosis-related protein Bax [11] | growth of human hair follicle dermal papilla cells [12] | protein expression of MITF transcription factor [13] | melanogenesis [14] | tyrosinase activity [16] | mRNA expression of MITF transcription factor [17] | protein expression of tyrosinase enzyme [18] | further results |
| --- | --- | --- | --- | --- | --- | --- | --- | --- | --- | --- | --- | --- | --- | --- | --- | --- |
| KWKRSADTL [SEQ ID NO: 2] | increase | increased | increased | increased | increased | decreased | inhibited | decreased | decreased | stimulated in a dose-dependent manner | increases | increased | increased | increased | increases | expression of KGF (mRNA) [8]: increased; expression of PI3K [9]: increase; phosphorylation level of CREB [15]: increased |
| WKWRSADTL [SEQ ID NO: 1] | increased | increased | increased | increased | increased | decreased | inhibited | decreased | decreased | stimulated in a dose-dependent manner | increased | increased | increased | increased | increased | expression of MSX2 (mRNA) [19]: increased; mRNA expression of TRP1 [20]: increases; expression of VEGF (mRNA) [21]: increased; mRNA expression of Ha3-II [22]: increased |
